Measurements from patent publication US20180021417A1, “ADJUVANT COMPOSITIONS COMPRISING A NON-IONIC ISOTONICITY AGENT” (GLAXOSMITHKLINE BIOLOGICALS, SA, priority 2009, published 2018).

Test system: chicken Red Blood cells (RBC)
Assay: QS21 lytic activity, haemolysis assay (limit test)
Format: cell-based
Details: example QS21 curve, 150 mM sodium chloride buffer; OD 0.12
Experimental: QS21 is known to lyse red blood cells (RBC).
QS21 lytic activity was measured by a haemolysis assay using chicken Red Blood cells (RBC). RBC were centrifuged at 550 g at 4° C. Supernatant was discarded. The pellet was carefully resuspended in PBS buffer to reach the initial volume and the same operation was repeated until supernatant was no longer red (generally 3 times). The pellet was stored at 4° C. for 3 to 4 days maximum if not used directly (and washed again the day it is used) or was diluted around 10 times in buffer if used the same day.
A QS21 dose range curve was prepared in ASA buffer (in salt or in sorbitol buffer following the ASA sample tested) extemporaneously and the adjuvant samples (containing a 50 μg or 90 μg equivalent of QS21 meaning the equivalent of 500 μl or 900 μl ASA) were prepared. Final volume was adjusted to 900 μl in standards and samples with adequate buffer (containing or not sorbitol as a function of the buffer of the sample tested). Due to its opalescence, ASA interferes in optical density (OD). […] Optical density at 540 nm was measured after centrifugation. […]
1. Limit of detection (LOD) was defined as the lowest concentration of QS21 leading to an OD: • Higher than the base level (OD>0.1) • Around three times higher than OD's buffer (the “o μg” QS21) • In the ascendant part of the curve • Determined for each test. […]

## QS21
  Limit of Detection (lowest QS21 amount giving lytic OD): 0.9 µg
